Data on one compound can be found in patent publication US20080280837A1, “Biologically Active Compounds with Anti-Angiogenic Properties” (priority 2004, published 2008).

Series [1] in a line: In vivo pharmacokinetic evaluation after i.v. and p.o. administration to rats. To be noted: rat, plasma, po, 25 mg/Kg, Rat 3, PO; calculated using AUC0-480; read-out: BA (oral bioavailability).
A short description of series [2]: in vitro. To be noted: human, Caco-2. On the procedure: The Caco-2 assay was performed according to the procedure described in the following cited article [Caco-2 Monolayers in Experimental and Theoretical Predictions of Drug Transport, Artursson P, Palm K, Luthman K., Adv. Drug Deliv. Rev., 2001, 46, 27-43].
The target in series [3] is T1, SSTR-4 (Homo sapiens, UniProt P31391).
T1 construct: expressed in transfected cells
T1 sequence (P31391 whole entry): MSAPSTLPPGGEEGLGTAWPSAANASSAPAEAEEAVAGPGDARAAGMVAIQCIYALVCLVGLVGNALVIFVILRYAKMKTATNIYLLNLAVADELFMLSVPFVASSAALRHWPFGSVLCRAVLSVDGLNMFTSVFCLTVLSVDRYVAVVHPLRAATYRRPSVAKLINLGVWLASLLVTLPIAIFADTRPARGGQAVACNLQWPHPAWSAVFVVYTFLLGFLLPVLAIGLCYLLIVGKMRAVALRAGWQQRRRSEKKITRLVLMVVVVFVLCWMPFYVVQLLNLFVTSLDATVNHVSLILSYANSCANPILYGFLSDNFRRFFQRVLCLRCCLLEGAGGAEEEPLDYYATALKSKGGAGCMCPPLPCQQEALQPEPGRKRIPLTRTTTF
The experiment in a line: Radioligand binding screen against somatostatin subtype SSTR-4 (SST4 assay). The conditions noted are these: concentration required to displace 50% of the competitive radioligand; read-out: IC50 SSTR4. In outline: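 Cloned human SSTR membranes competed against [125I]Tyr11-somatostatin-14, with excess cold ligand defining non-specific binding; bound label measured by filtration and counting. Compounds tested in triplicate over a 1:5 dilution series from 250 μM for SST4 and 125 μM for SST5; primary screens used duplicates at one concentration.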

Series [4] addresses T2, SSTR-3 (Homo sapiens, UniProt P32745).
T2 construct: expressed in transfected cells
Nature of the series: Radioligand binding screen against somatostatin subtype SSTR-3. Summed up:
(§1)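 Competition binding on membranes from cells expressing the cloned human receptor, with [125I]Tyr11-somatostatin-14 as radioligand and excess cold ligand defining non-specific binding. Reaction stopped with ice-cold wash buffer, then filtered and counted. Compounds run in duplicate at one concentration in primary screening; curves fitted where generated.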

Series [5] relates to HUVEC tube formation. The experiment in a line: Matrigel tube formation assay. Format: cell-based, human. The conditions noted are these: Homo sapiens, 22 h. On the procedure: HUVEC (Clonetics) were plated in 96 well plates in EGM-2 media (Clonetics) at 2.5 to 3×10^4 cells per well. Cells of less than 6 passages were used in all studies. Wells were precoated with 50 μL growth factor containing Matrigel (Becton Dickinson). HUVEC were allowed to form tubes by incubation at 37° C. in 5% CO2 for 22 hrs. In test wells compound was added in the desired concentration. Photographic images of the wells ×4 magnification were used to determine size of the tubes, length of tubes and number of junctions using image analysis software.

Series [6] addresses T3, SSTR-2 (Homo sapiens, UniProt P30874).
T3 construct: expressed in transfected cells
Nature of the series: Radioligand binding screen against somatostatin subtype SSTR-2. Summed up: as §1

The test system of series [7] is MV522 human NSCLC tumour xenograft. Nature of the series: Nude mouse model of human MV522 non-small cell lung cancer tumours. It counts as in vivo, nude mice. On the procedure: Initial Maximum Tolerated Dose (MTD) studies were done in male nude mice to determine the appropriate intravenous dosing regimen for the MV522 human NSCLC tumour model. A range of doses between 0 and 50 mg/Kg for 28 days (qdx28) were tested. Mice were randomized into groups with 5 animals per group including vehicle control. Animals were weighed twice weekly starting on day one and observed daily for adverse reactions or toxicity due to the agent. MTD studies determined the selection of 20 mg/kg and 35 mg/kg for intravenous dosing once per day for 28 days in the MV522 human NSCLC tumour xenograft model.
Male nude mice (nu/nu) between 5 and 6 weeks of age weighing approximately 20 g were implanted subcutaneously (s.c) by trocar with fragments of MV522 human tumour carcinomas harvested from s.c growing tumours in host mice. MV-522 is a metastatic human lung adenocarcinoma line. When tumours reached approximately 72 mg in size animals were pair matched into treatment and control groups with 10 mice in each group. Each mouse was tagged and followed individually throughout the experiment.
“Compound 1” was administered i.v. in a saline vehicle from day one. Vehicle control group animals were administered saline i.v. There were nine treatment groups including the vehicle control group. […]
At the end of the treatment period the mice were weighed and sacrificed. Each tumour was excised and weighed and a mean actual tumour weight (mg) per group was calculated along with the mean actual volume (mm^3). […] Mean tumour regression was determined using the formula [1−(mean actual tumour weightFINAL/mean tumour weightDAY 1)×100%].

Series [8] is described as follows: Solubility of salts of compound 1. Format: physicochemical. The conditions noted are these: Water, overnight; listed as Free Base (Compound 1).
Series [9] concerns Human Umbilical Vein Endothelial Cells (HUVEC). The experiment in a line: Endothelial cell proliferation assay (MTS). Format: cell-based. The conditions noted are these: 48 hrs.
[10] abbreviates: normalized IC50: lowest IC50 for a compound = 1.

T3 sequence (P30874 whole entry): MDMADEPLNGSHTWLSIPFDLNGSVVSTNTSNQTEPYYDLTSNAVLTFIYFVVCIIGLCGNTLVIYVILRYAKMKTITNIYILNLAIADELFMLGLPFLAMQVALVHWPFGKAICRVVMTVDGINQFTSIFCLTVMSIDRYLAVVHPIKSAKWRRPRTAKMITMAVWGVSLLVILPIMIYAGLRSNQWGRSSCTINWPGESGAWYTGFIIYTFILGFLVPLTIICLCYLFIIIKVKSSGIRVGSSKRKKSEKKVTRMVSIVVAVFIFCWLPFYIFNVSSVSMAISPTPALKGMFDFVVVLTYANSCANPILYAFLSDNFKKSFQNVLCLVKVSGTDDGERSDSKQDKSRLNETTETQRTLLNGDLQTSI
T2 sequence (P32745 whole entry): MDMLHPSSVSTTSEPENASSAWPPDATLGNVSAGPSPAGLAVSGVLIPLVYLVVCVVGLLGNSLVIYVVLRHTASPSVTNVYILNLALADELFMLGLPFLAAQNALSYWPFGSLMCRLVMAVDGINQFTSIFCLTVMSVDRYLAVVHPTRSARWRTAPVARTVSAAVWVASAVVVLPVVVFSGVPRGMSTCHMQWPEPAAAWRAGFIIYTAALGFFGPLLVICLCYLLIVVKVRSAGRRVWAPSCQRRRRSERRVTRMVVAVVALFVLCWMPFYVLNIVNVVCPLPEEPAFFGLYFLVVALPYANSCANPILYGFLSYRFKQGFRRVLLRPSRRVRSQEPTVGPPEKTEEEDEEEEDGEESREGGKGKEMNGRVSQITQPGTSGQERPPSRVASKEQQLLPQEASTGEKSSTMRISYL

Turning to `COC[C@H]1O[C@H](OCCc2ccccc2)[C@H](NC(=O)CCCN)[C@@H](OCc2ccc3ccccc3c2)[C@@H]1O` [Compound 1], the bioavailability (commonly the share of a dose that reaches the circulation, judged against a reference dose that is usually intravenous) in [1] was 4.95%. The Papp (as a rule, a coefficient for how fast a substance crosses the barrier) in series [2] was determined as 1.04 ×10⁻⁶ cm/s. For the same compound, the IC50 (as a rule, the concentration at which inhibition is half-maximal) is over 12.5 µM in series [3]; 8.5 µM in series [4] (concentration required to displace 50% of the competitive radioligand, read-out: IC50 SSTR3); 7.5 µM in [6] (concentration required to displace 50% of the competitive radioligand, read-out: IC50 SSTR2). Also, in [4] (setting [10]), the “selectivity SSTR3” value came out at 26.4. Moreover, in series [4] (slope of binding curve), the “Hillslope SSTR3” value is given as 1.04. The midpoint of the response in series [5], the EC50, lay at 250 µM. Moreover, in [6] (setting [10]), the “selectivity SSTR2” value is reported as 23.2. Moreover, the “Hillslope SSTR2” value in series [6] (slope of binding curve) turned out to be 1.2. Moreover, the “Tumour growth inhibition (TGI)” value in series [7] (group nine: 35 mg/kg compound 1 i.v. qdx28 and paclitaxel 16 mg/kg i.p. qdx5) is given as 75.1%; in series [7] (group seven: 20 mg/kg compound 1 i.v. qdx28 and paclitaxel 16 mg/kg i.p. qdx5) it was 56.9%. Also, in series [8], the “Solubility in Water” value is over 200 µg/mL. The same compound displayed a Percent cell growth at 125 µM in series [9] (125 uM) of 69%. In [9] (250 uM), this compound came in with a Percent cell growth at 250 µM of 17%.
